Assay results taken from US20040209956A1 (priority 2003, published 2004).

How the values were obtained:
Type in all cases: physicochemical
[1] = Solubility and solid form in DMF/water/acetonitrile ternary solvent system; conditions: one molar equivalent excess maleic acid
Description: The final set of solubility studies were conducted in ternary solvent systems of dimethyl formamide (DMF)/water/acetonitrile (ACN). This system was studied because most of the early success in crystallizing S-[2-[(1-Iminoethyl)amino]ethyl]-2-methyl-L-cysteine maleate salt was found in this solvent mixture. […] Experiments were only conducted for the last four of these compositions at 25° C., but the data was collected for the compositions at 5° C. Supernatant was analyzed after four and nineteen days. Equilibrated solids were also isolated and characterized after nineteen days from most experiments (see Table 5). […] Table 5, lists concentration data in wt % S-[2-[(1-Iminoethyl)amino]ethyl]-2-methyl-L-cysteine from all the experiments at 5 and 25° C. after four and nineteen days of equilibration. […] There is also some temperature dependence for solubility across all the experiments. When the data is analyzed at a fixed ACN content, it seems that the solubility initially decreases before increasing as the DMF content of the system is increased at the expense of water. This trend seems to hold for both 70 and 90% ACN. […] In summary, though this solvent system is complex, it does offer regions of solvent composition conducive to crystallization process design especially for form II.

[2] = physchem
Excerpt: The parent S-[2-[(1-Iminoethyl)amino]ethyl]-2-methyl-L-cysteine molecule has 3 ionizable groups and can exist in 4 ionization states.
At low pH, the molecule exists as a +2 charged free acid, with the carboxylic acid, amine and amidine moieties protonated. This is the ionization state for the dihydrochloride salt.
As the pH is increased, the carboxylic acid group is the first group to deprotonate, and this produces a net charge on the molecule of +1. If the pH increase is generated by addition of sodium hydroxide to S-[2-[(1-Iminoethyl)amino]ethyl]-2-methyl-L-cysteine, the […] is formed. Other bases would make their corresponding salt forms. If the increase in pH is due to removal of chloride ions by anion exchange processing, the product is the monohydrochloride salt with no sodium or other counterions.
A positive charge still resides on the amidine, and a negative charge still resides on the carboxyl group. In contrast, if such material is made by the addition of sodium hydroxide to the dihydrochloride, the resulting product is the monohydrochloro sodium salt, mixed with one equivalent of sodium chloride. The material prepared by the anion exchange resin approach is the free zwitterion.
Further increases in pH lead to deprotonation of the amidine ion (pKa˜12.5). The molecule in this pH range is the free base and acid salt. […]

[3] = Pseudo-titration in water with IRA-400(OH) anion exchange resin, samples assayed by HPLC (Example 3); conditions: for pH of slower rise representative of the pK: pseudo-titration in water, not true equilibrium
Description: 60 g of Amberlite IRA400 (OH) resin was prewashed with 4.7 percent (by weight) ammonium hydroxide (50 ml of 28 percent ammonium hydroxide, 250 ml deionized water), followed by extensive washing with deionized water. The final conductivity was 6.1 μS.
Samples containing about 0.9 g of S-[2-[(1-Iminoethyl)amino]ethyl]-2-methyl-L-cysteine di-hydrochloride in 142 ml HCl/water solution, were concentrated on a rotary evaporator at 60° C. to an oil. To the oil, diluted to 60 ml with deionized water, was added aliquots of 0.5 g of washed anion exchange resin while stirring. At five minutes after each aliquot of resin was added, the solution pH was measured and a sample removed through a syringe filter. A total of 9 g of anion exchange resin was added. The final pH was 10.8. The resin was removed by filtration and the filtrate was concentrated to an oil by rotary evaporation at 60° C.; no solids formed. The starting material, final filtrate and all intermediate samples were assayed by HPLC and ion chromatography for chloride.
The diamond (solid line) is pH and square (dashed line) is S-[2-[(1-Iminoethyl)amino]ethyl]-2-methyl-L-cysteine (percent initial, by ion chromatography). […] The diamond (solid line) is pH and triangle (broken line) is chloride (by ion chromatography).
These curves are not true titration curves since samples were withdrawn during the progress of the reaction, and since true equilibrium was not attained before the increments of resin were added. Nevertheless, the graphs of FIG. 2 and FIG. 3 illustrate the expected trends. As resin is added to the S-[2-[(1-Iminoethyl)amino]ethyl]-2-methyl-L-cysteine solution the pH rises with change in slope around pH's of 2, 9 and 11. The pH's of slower rise are representative of the pK's of the carboxylic acid, amine and amidine functional groups, respectively. Above a pH of 10, the S-[2-[(1-Iminoethyl)amino]ethyl]-2-methyl-L-cysteine concentration in solution decreases. At this point, the S-[2-[(1-Iminoethyl)amino]ethyl]-2-methyl-L-cysteine is gaining a net negative charge and is binding to the resin. […] The final chloride content is approximately 0.04 mol equivalents.

[4] = Stability of free zwitterion at different pH by ion pairing gradient HPLC (Example 6); conditions: for Purity At The Time Of Titration: a few hours after preparation; for Purity One Week After Titration: after 1 week
Description: Amberlite IRA400 (Cl) resin was rinsed with 3M HCl, water, and then 3M NaOH. Aliquots were 100 ml per 10 g of resin. This procedure was repeated 3 times in order to clean the resin and in order to generate the OH form. A final rinse with water was carried out until the conductivity of the eluting water was 2 μS. The resin was then used to titrate 40 ml of a 50 mg/ml solution of S-[2-[(1-Iminoethyl)amino]ethyl]-2-methyl-L-cysteine di-hydrochloride. The concentration is expressed in terms of zwitterion equivalents. Aliquots were taken throughout the titration, filtered and analyzed by HPLC. Subsamples of the aliquots were saved for a second HPLC analysis 1 week after the titration was performed in order to assess the stability of the samples. Additional aliquots were taken for Cl analysis using an ion selective electrode. The pH was also monitored throughout the titration.
HPLC analyses were performed using an ion pairing gradient method.
Pump A: 20 mM KH2PO4, 10 mM Pentane sulfonic acid, adjusted to pH=3 with phosphoric acid
Gradient: 0% B at 0 min, 26% B at 15 min, 0% B at 15.1 min

[5] = HPLC stability of anion exchange titrated samples (Example 5); conditions: product at pH of 11 within a few hours
Description: 3.3 g of a sample containing about 1 g of S-[2-[(1-Iminoethyl)amino]ethyl]-2-methyl-L-cysteine di-hydrochloride was diluted to 20 g. Aliquots of prewashed Amberlite IRA400 (OH) resin was added to the solution and samples were periodically withdrawn through a syringe filter. Intermediate resin filtrations were performed at pH of 7.1 and 8.8 by filtering off the resin in solution and then continuing to add fresh resin to the filtrate. This was done to drive the chloride removal equilibrium and minimize product adsorption. After the final pH of 11.2 was attained, the resin was filtered off. The starting materials, intermediate samples and final filtrate were analyzed.
The resulting samples were analyzed by HPLC. No difference was seen between the HPLC traces of the starting material and product at pH of 11 within a few hours.

[6] = Moisture sorption of Form I; conditions: 90% R.H. and 25° C.
Excerpt: FIG. 12 is a plot of a moisture sorption study of S-[2-[(1-Iminoethyl)amino]ethyl]-2-methyl-L-cysteine maleate.

CC(=N)NCCSC[C@](C)(N)C(=O)O.O=C(O)/C=C\C(=O)O [S-[2-[(1-Iminoethyl)amino]ethyl]-2-methyl-L-cysteine maleate]
Solubility in DMF/water/acetonitrile ([1]; 5/5/90 D/W/A, 5° C., 4 Days): 1.15 Wt % | Solubility in DMF/water/acetonitrile ([1]; 5/5/90 D/W/A, 5° C., 19 Days): 1.16 Wt % | Solubility in DMF/water/acetonitrile ([1]; 6.3/3.4/90 D/W/A, 5° C., 4 Days): 1.35 Wt % | Solubility in DMF/water/acetonitrile ([1]; 6.3/3.4/90 D/W/A, 5° C., 19 Days): 1.02 Wt % | Solubility in DMF/water/acetonitrile ([1]; 6.3/3.4/90 D/W/A, 25° C., 4 Days): 2.13 Wt % | Solubility in DMF/water/acetonitrile ([1]; 6.3/3.4/90 D/W/A, 25° C., 19 Days): 1.74 Wt % | Solubility in DMF/water/acetonitrile ([1]; 7.5/2.5/90 D/W/A, 5° C., 4 Days): 4.19 Wt % | Solubility in DMF/water/acetonitrile ([1]; 7.5/2.5/90 D/W/A, 5° C., 19 Days): 2.12 Wt % | Solubility in DMF/water/acetonitrile ([1]; 7.5/2.5/90 D/W/A, 25° C., 4 Days): 2.53 Wt % | Solubility in DMF/water/acetonitrile ([1]; 7.5/2.5/90 D/W/A, 25° C., 19 Days): 2.45 Wt % | Solubility in DMF/water/acetonitrile ([1]; 15/15/70 D/W/A, 5° C., 4 Days): 3.31 Wt % | Solubility in DMF/water/acetonitrile ([1]; 15/15/70 D/W/A, 5° C., 19 Days): 5.71 Wt % | Solubility in DMF/water/acetonitrile ([1]; 20/10/70 D/W/A, 5° C., 4 Days): 2.91 Wt % | Solubility in DMF/water/acetonitrile ([1]; 20/10/70 D/W/A, 5° C., 19 Days): 1.75 Wt % | Solubility in DMF/water/acetonitrile ([1]; 20/10/70 D/W/A, 25° C., 4 Days): 3.46 Wt % | Solubility in DMF/water/acetonitrile ([1]; 20/10/70 D/W/A, 25° C., 19 Days): 2.33 Wt % | Solubility in DMF/water/acetonitrile ([1]; 22.5/7.5/70 D/W/A, 5° C., 4 Days): 3.06 Wt % | Solubility in DMF/water/acetonitrile ([1]; 22.5/7.5/70 D/W/A, 5° C., 19 Days): 2.75 Wt % | Solubility in DMF/water/acetonitrile ([1]; 22.5/7.5/70 D/W/A, 25° C., 4 Days): 4.90 Wt % | Solubility in DMF/water/acetonitrile ([1]; 22.5/7.5/70 D/W/A, 25° C., 19 Days): 7.38 Wt %

CC(=N)NCCSC[C@](C)(N)C(=O)O [S-[2-[(1-Iminoethyl)amino]ethyl]-2-methyl-L-cysteine]
pKa [2]: ~8.4 | pH of slower rise representative of the pK ([3]; amidine group): ~11 | pH of slower rise representative of the pK ([3]; amine group): ~9 | pH of slower rise representative of the pK ([3]; carboxylic acid group): ~2 | Degradation by HPLC assay of the samples ([3]; samples titrated up to final pH 10.8, Example 3): no degradation | Purity At The Time Of Titration ([4]; Sample pH 2.13): 98.6 Peak Area % | Purity One Week After Titration ([4]; Sample pH 2.13): 98.4 Peak Area % | Purity At The Time Of Titration ([4]; Sample pH 3.83): 98.7 Peak Area % | Purity One Week After Titration ([4]; Sample pH 3.83): 98.1 Peak Area % | Purity At The Time Of Titration ([4]; Sample pH 8.48): 98.5 Peak Area % | Purity One Week After Titration ([4]; Sample pH 8.48): 97.4 Peak Area % | Purity At The Time Of Titration ([4]; Sample pH 9.37): 98.5 Peak Area % | Purity One Week After Titration ([4]; Sample pH 9.37): 97.2 Peak Area % | Purity At The Time Of Titration ([4]; Sample pH 9.78): 98.3 Peak Area % | Purity One Week After Titration ([4]; Sample pH 9.78): 97.2 Peak Area % | Purity At The Time Of Titration ([4]; Sample pH 10.27): 98.3 Peak Area % | Purity One Week After Titration ([4]; Sample pH 10.27): 96.4 Peak Area % | Purity At The Time Of Titration ([4]; Sample pH 10.83): 96.6 Peak Area % | Purity One Week After Titration ([4]; Sample pH 10.83): 94.7 Peak Area % | Purity At The Time Of Titration ([4]; Sample pH 11.6): 98.3 Peak Area % | Purity One Week After Titration ([4]; Sample pH 11.6): 92.4 Peak Area % | Purity At The Time Of Titration ([4]; Sample pH 11.75): 97.9 Peak Area % | Purity One Week After Titration ([4]; Sample pH 11.75): 89.2 Peak Area % | Purity At The Time Of Titration ([4]; Sample pH .94): 98.0 Peak Area % | Purity One Week After Titration ([4]; Sample pH .94): 98.3 Peak Area % | Difference between HPLC traces of starting material and product [5]: No difference

S-[2-[(1-Iminoethyl)amino]ethyl]-2-methyl-L-cysteine maleate crystalline salt Form I
Water absorbed by weight [6]: less than one percent
